First: CC(C)(C)NCC(O)COc1cccc(NC(N)=O)c1C(N)=O (stereo not given)
Second: CCOC(=O)Nc1ccccc1SCc1ncon1
The melting point of the first is higher: 189 to 191 °C for the first, 55 °C for the second.

First: NC(=NCC(F)(F)F)Nc1ccnc(COCCO)n1
Second: CC(O)=C(C#N)C(=O)Nc1ccc(C(F)(F)F)cc1
The melting point of the first is lower: 144 to 146 °C for the first, 230 to 233 °C for the second.

First: NCCn1c(=O)nc(-c2ccc3c(c2)OCO3)c2cc3c(cc21)OCO3
Second: Cn1c2ccc(Cl)cc2c2c3ccccc3c(OCCN3CCOCC3)nc21
The melting point of the first is lower: 115 to 120 °C for the first, 140 to 142 °C for the second.

First: CCOC(=O)c1ccc(Cc2ccc(O)cc2)cn1
Second: CCOC(=O)C(C)(C)Oc1ccc(C(=O)Cc2ccccc2)cc1
The melting point of the first is higher: 153 to 156 °C for the first, 110 to 113 °C for the second.

Compared with CCn1ncnc1COc1nc2c(cnn2-c2ccccc2)cc1C(C)(C)C, Nc1cc(OCc2ccccc2)c2ncccc2c1 is higher in melting point: 150 to 152 °C for the first, 183 to 185 °C for the second.

First: O=c1cc(O)cc(-c2cccc(Cl)c2)o1
Second: COc1cccc(-c2cc(=O)cc(N3CCOCC3)o2)c1
The melting point of the first is higher: 254 to 256 °C for the first, 115 to 117 °C for the second.

First: COC(=O)C1Cc2c([nH]c3ccccc23)C(c2ccc(Cl)c(Cl)c2)N1C(=O)CCl (stereo not given)
Second: Cn1c(=O)c(C(=O)O)c(-c2ccccc2Cl)c2cc(Cl)ccc21
The melting point of the first is lower: 163 to 165 °C for the first, 197 to 198 °C for the second.

First: COc1cc(C)nc(S(C)(=O)=O)n1
Second: CS(=O)(=O)c1nccc(Cl)n1
The melting point of the first is lower: 80 °C for the first, 91 to 93 °C for the second.

First: COc1ccc(Cl)cc1NC(=O)[C@H]1[C@H](c2ccc(S(N)(=O)=O)c(C)c2)C1(C)C (relative stereo)
Second: CC(C)(CO)c1ccc(C(=O)Nc2cn3cc(Cl)ccc3n2)cc1
The melting point of the first is lower: 118 to 121 °C for the first, 240 to 242 °C for the second.

First: CS(=O)(=O)Nc1ccc(C(=O)NC(=O)N2CCC(Cc3ccccc3)CC2)cc1
Second: O=C(O)c1ccc(CN(C2CCCCC2)S(=O)(=O)c2ccc(F)cc2)cc1
The melting point of the first is lower: 97.5 to 100 °C for the first, 218 to 220 °C for the second.

First: CCOCc1nc2c(N)nc3ccccc3c2n1CC1CCN(C)O1 (stereo not given)
Second: CCn1c2c(c3ccccc31)CCSC2(C)CCN(C)C (stereo not given)
The melting point of the first is higher: 173 to 174 °C for the first, 86 to 88 °C for the second.

Compared with CCCCCCCCCCCCC#CC(F)(CCCCC(=O)O)CCCCC(=O)O, CCCCCCCCCCCCOC(=O)c1cc(N=NN(CCO)c2ccc(C)cc2)ccc1[N+](=O)[O-] is lower in melting point: 98 to 100 °C for the first, 64 to 66 °C for the second.

First: CCCCC1(CCCC)CCc2c(OCc3ccc4ccccc4n3)cccc2C1O (stereo not given)
Second: CCCCCNc1cc(C(=O)OCCCCC)cc(S(N)(=O)=O)c1Oc1ccccc1
The melting point of the first is lower: 62 to 65 °C for the first, 138 to 139 °C for the second.

First: CCOCOc1c(-c2ccc(C(=O)Nc3ccc(OC(C)=O)cc3)cc2)ccc2cc(OC)c(C34CC5CC(CC(C5)C3)C4)cc12
Second: Cc1cc(C(=O)Nc2ccc(SC(F)(F)F)c(Cl)c2)c(O)c(C23CC4CC(CC(C4)C2)C3)c1
The melting point of the first is higher: 206 to 207 °C for the first, 205 to 206 °C for the second.

First: O=c1nc(-c2ccc(Br)cc2)c2c(=O)nc(-c3ccc(Br)cc3)c1=2
Second: CCn1c(C)c(C2(c3c(-c4ccc(OC)cc4)nc4sccn34)OC(=O)c3cccnc32)c2ccccc21 (stereo not given)
The melting point of the first is higher: > 400 °C for the first, 115 to 118 °C for the second.

First: COCCOc1cc(N)c([N+](=O)[O-])cc1I
Second: CC(=O)c1ccc(OCCCC(=O)O)c(C)c1
The melting point of the first is higher: 121 to 122 °C for the first, 114 to 116 °C for the second.

Compared with O=C(O)c1ncsc1-c1cc(F)cc(F)c1, O=C(O)c1nn(-c2ccc(Cl)cc2Cl)c2c1CCc1cc(C(F)(F)F)ccc1-2 is higher in melting point: 200 °C for the first, 245 °C for the second.

First: CCCCCCCS(=O)(=O)c1nn2c(=O)c(C)c(F)nc2s1
Second: COc1cccc2c(=O)c(-c3cccc(C(F)(F)F)c3F)nn(CCCNS(C)(=O)=O)c12
The melting point of the first is higher: 143 to 146 °C for the first, 62 to 64 °C for the second.

Compared with CC(C)(C)OC(=O)N1CSCC1C(=O)Nc1ccc(-n2nc(C(F)(F)F)cc2C(F)(F)F)cc1 (stereo not given), Cc1cc(OC=CCC(F)(F)F)nc(Oc2cc(C(F)(F)F)nn2C)c1 is lower in melting point: 82 to 84 °C for the first, 56 °C for the second.

First: O=C(NO)NCCCCC1CCSS1 (stereo not given)
Second: CC1CC(=O)NN=C1c1ccc(OCCCN)cc1 (stereo not given)
The melting point of the first is lower: 100 to 101 °C for the first, 136 to 138 °C for the second.

Compared with FC(F)(F)c1ccc(Oc2ccc3nonc3c2)cc1, NC(=O)c1cc(-n2cnn(Cc3ccc(F)cc3)c2=O)n[nH]1 is higher in melting point: 77 to 78 °C for the first, > 270 °C for the second.

First: CCOC(=O)c1c(-c2ccccc2)c(Cc2cccc(F)c2C)cn1N
Second: Cc1ccc(C)c(OCc2ccccc2/C(=N\O)C(N)=O)c1
The melting point of the first is lower: 87 to 88 °C for the first, 166 to 168 °C for the second.

First: CC(C)(C)OC(=O)N1CCC(Oc2ccccc2C(C)(C)C)CC1
Second: CC[C@@]1(CC(=O)N[C@@H](C)c2ccccc2)CCCN2CCc3c([nH]c4ccccc34)[C@@H]21
The melting point of the first is lower: 102 to 103 °C for the first, 188 to 192 °C for the second.

First: CNc1cc(-c2sc(N)nc2-c2cccc(C)n2)ccc1[N+](=O)[O-]
Second: Cc1c(-c2ccccc2)c2cc(Cl)cc3c2n1CC3
The melting point of the first is lower: 100 to 102 °C for the first, 202 to 204 °C for the second.

First: O=C(O)CCC1(c2cccc(Cl)c2)NC(=O)NC1=O (stereo not given)
Second: CC(C)(C)OC(=O)NC(COc1noc2ccc(Cl)cc12)Cc1cc(O)no1 (stereo not given)
The melting point of the first is higher: 196 to 217 °C for the first, 159 to 161 °C for the second.

Reference: a melting point compilation (Tetko et al.; mined from patent text by program, amines drawn as free bases though some values may be those of a salt)
